Measured values as given in PMC3723589 (Channels, 2010).
Several values for one entry are separate records, joined by “and”; a condition that tells them apart may be missing. Identical values can stand only once. Like-named read-outs stand apart in the source and are kept apart here.

What was measured:
ROMK1 = conditions: cited from earlier work
mouse Slo1 K+ channels [1] = molecular target: T1, mouse Slo1 K+ channels (Mus musculus, UniProt Q08460); test: Block of Slo1 currents, blocker applied cytosolically to inside-out patches; format: cell-based
T1 sequence (Q08460 66-1209 limits assumed): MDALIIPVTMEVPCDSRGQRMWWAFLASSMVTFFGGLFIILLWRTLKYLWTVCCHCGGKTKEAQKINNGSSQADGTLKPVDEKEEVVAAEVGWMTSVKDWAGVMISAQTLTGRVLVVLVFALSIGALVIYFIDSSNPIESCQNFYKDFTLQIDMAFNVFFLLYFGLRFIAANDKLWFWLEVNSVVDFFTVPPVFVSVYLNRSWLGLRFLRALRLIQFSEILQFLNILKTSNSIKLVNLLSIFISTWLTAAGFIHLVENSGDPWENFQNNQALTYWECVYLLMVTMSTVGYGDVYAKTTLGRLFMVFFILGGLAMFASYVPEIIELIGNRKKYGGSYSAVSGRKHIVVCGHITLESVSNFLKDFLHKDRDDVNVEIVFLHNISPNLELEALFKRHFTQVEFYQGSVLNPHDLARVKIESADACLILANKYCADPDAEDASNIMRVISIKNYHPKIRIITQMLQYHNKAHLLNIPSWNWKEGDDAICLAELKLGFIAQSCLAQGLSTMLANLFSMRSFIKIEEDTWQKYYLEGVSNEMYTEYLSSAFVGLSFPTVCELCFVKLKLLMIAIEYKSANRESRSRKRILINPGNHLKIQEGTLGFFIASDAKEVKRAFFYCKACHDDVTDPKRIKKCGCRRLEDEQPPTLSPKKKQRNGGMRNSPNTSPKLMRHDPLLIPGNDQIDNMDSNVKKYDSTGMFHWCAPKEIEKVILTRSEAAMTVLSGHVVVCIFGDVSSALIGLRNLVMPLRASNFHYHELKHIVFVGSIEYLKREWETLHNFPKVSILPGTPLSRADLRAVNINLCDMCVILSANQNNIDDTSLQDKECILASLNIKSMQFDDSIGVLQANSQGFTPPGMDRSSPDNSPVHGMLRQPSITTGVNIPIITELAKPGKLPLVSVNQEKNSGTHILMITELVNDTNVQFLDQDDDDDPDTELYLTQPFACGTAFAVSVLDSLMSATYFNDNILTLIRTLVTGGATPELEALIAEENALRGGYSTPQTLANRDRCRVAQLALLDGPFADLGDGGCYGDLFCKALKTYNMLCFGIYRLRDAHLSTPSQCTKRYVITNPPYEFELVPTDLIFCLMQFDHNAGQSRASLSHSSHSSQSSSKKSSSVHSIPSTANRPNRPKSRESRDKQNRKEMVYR

mouse Slo1 K+ channels [2] = molecular target: T1, mouse Slo1 K+ channels; test: Block of Slo1 currents, blocker applied extracellularly to outside-out patches; format: cell-based
[3] = pK and percent protonation of tertiary amines; format: physicochemical; conditions: quinidine at pH 8.5; calculated from pK 8.6
[4] = molecular target: T2, MC13 (Slo1(1-181):Slo3(171-1121)) (Mus musculus, UniProt O54982); format: cell-based
T2 sequence (O54982 171-1121): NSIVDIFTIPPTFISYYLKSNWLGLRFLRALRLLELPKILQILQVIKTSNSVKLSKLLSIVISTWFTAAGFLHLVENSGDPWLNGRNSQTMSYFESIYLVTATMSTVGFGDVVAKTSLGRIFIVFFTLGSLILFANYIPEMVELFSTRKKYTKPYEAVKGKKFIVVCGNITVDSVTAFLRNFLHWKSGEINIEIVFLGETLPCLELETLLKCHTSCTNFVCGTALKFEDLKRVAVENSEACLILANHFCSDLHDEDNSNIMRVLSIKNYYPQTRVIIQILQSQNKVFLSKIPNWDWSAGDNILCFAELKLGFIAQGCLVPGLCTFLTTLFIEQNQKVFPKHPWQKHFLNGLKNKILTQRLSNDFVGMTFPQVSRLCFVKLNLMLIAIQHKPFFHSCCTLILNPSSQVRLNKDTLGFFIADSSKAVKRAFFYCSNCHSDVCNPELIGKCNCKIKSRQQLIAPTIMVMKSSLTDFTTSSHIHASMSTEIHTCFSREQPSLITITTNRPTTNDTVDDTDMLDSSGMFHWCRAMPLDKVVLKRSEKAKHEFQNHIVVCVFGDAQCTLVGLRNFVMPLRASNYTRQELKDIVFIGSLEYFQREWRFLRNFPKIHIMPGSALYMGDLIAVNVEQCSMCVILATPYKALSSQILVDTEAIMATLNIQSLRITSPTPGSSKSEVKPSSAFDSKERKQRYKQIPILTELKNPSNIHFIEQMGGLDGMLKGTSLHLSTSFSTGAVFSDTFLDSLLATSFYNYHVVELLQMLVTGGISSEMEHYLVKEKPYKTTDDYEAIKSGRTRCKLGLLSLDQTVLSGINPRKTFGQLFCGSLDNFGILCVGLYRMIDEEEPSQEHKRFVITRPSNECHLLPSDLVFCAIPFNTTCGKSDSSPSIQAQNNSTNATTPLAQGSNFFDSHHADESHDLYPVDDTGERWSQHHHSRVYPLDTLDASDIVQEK
T2 sequence (Q08460 66-246 partner): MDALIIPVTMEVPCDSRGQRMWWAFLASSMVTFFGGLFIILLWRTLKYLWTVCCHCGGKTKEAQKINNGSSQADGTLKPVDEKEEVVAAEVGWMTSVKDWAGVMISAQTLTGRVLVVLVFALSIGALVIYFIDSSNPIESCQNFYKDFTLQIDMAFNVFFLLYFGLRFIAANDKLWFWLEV

IRK1 = conditions: read-out: EC50, block of IRK1; cited from earlier work
[5] = tested on: native pH-dependent KSper K+ channel; conditions: 500 μM quinidine; activation at pH 7.5 and +100 mV; cited from earlier work
[6] = molecular target: T2, MC13 (Slo1(1-181):Slo3(171-1121)); test: Block of MC13; format: cell-based
sperm = conditions: cited from earlier work
[7] = quinidine; cited from earlier work
[8] = extracellular quinidine, 300 μM Ca2+, pH 8.5, fit OB-CB (2') 4 params
[9] = intracellular quinidine, pH 8.5, fit OB-CB (2') 4 params
[10] = extracellular quinidine, pH 8.5, fit OB-CB (2') 4 params

C=C[C@H]1C[N@@]2CC[C@H]1C[C@@H]2[C@@H](O)c1ccnc2ccc(OC)cc12 [quinidine]
inhibition of ROMK1 (ROMK1): only moderately inhibited
Kb (mouse Slo1 K+ channels [1]): 92.8 ± 9.8 µM
Kd (mouse Slo1 K+ channels [1]): 207 ± 7.4 µM
effective change in Kb(0), pH 8.5 versus pH 7.0 (mouse Slo1 K+ channels [1]; cytosolic quinidine): 1.56 fold
zδ (mouse Slo1 K+ channels [1]; cytosolic quinidine, 10 μM Ca2+ at pH 7.0, Eqn. 1 open channel block): 0.11 ± 0.03 e
zo (mouse Slo1 K+ channels [1]; intracellular quinidine, 300 μM Ca2+, pH 8.5, fit OB-CB (2a) 2 params): 0.28 ± 0.02 e
Kb (mouse Slo1 K+ channels [2]): 950 ± 20 µM
Kd (mouse Slo1 K+ channels [2]; Kbc, extracellular quinidine, 300 μM Ca2+, pH 8.5, fit OB-CB (2') 4 params): 1200 ± 210 µM
Kd (mouse Slo1 K+ channels [2]; Kbo, extracellular quinidine pH 7.0, 300 μM Ca2+, pH 8.5, fit OB (1a) 2 params): 950 ± 20 µM
Kd (mouse Slo1 K+ channels [2]; Kbo, extracellular quinidine, 300 μM Ca2+, pH 8.5, fit OB-CB (2') 4 params): 1510 ± 160 µM
Kd (mouse Slo1 K+ channels [2]; Kbo, extracellular quinidine, 300 μM Ca2+, pH 8.5, fit OB-CB (2a) 2 params): 1490 ± 40 µM
zo (zδ) (mouse Slo1 K+ channels [2]; extracellular quinidine pH 7.0, 300 μM Ca2+, pH 8.5, fit OB (1a) 2 params): 0.047 ± 0.01 e and 0.05 ± 0.01 e
zc (mouse Slo1 K+ channels [2]; [8]): 0.66 ± 0.1 e
zo (mouse Slo1 K+ channels [2]; [8]): 0.06 ± 0.08 e
percent protonated [3]: 55.7% and 55.73%
change in effective Kb(0), pH 8.5 versus pH 8.2 ([4]; cytosolic quinidine, Scheme 2a): approximately 2 fold
zc [4, 9]: -0.15 ± 0.38 e
zo [4, 9]: -0.38 ± 0.10 e
block of MC13 at lower concentrations than block of Slo1 currents ([4]; quinidine, at potentials near 0 mV): ~ 100 fold
EC50 (IRK1): 700 µM
block of native KSper K+ channel [5]: strongly block
quinidine concentration giving strong block of Slo3 ([6]; at potentials near 0 mV, irrespective of the side of application): less than 10 μM
zc [6, 10]: -0.55 ± 1.5 e
zo [6, 10]: -0.27 ± 0.02 e
lowest concentration at which effects on sperm function have been reported (sperm): 20 µM
pK (one protonatable site) [7]: ~4.2
pK (second protonatable site, value used) [7]: 8.6
